# Test results: patent US7462600B2, “Macrolides” (Pfizer Inc, priority 2004, dated 2008)
# Like-named read-outs stand apart in the source and are kept apart here.
# Columns and labels:
# Type in all cases: cell-based
# [1] = tested on: Streptococcus pneumoniae 1016; experiment: MIC, microtiter broth dilution (NCCLS M100-S14), S. pneumoniae 1016 (susceptible)
# In short: (§1)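 Broth dilution was run in microtiter trays and read per NCCLS M100-S14 to give MICs. Compounds came from 40 mg/ml DMSO stock solutions. The strain panel paired macrolide-susceptible parents with macrolide-resistant derivatives.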
# [2] = tested on: Streptococcus pneumoniae 1095; details: microtiter broth dilution
# In short: as §1
# [3] = tested on: Streptococcus pneumoniae 1175; details: microtiter broth dilution
# In short: as §1
# [4] = tested on: Streptococcus pyogenes 1079; experiment: MIC, microtiter broth dilution (NCCLS M100-S14), S. pyogenes 1079 (ermB)
# In short: as §1
# [5] = tested on: Haemophilus influenzae 1218; experiment: MIC, microtiter broth dilution (NCCLS M100-S14), H. influenzae 1218 (susceptible)
# In short: as §1
# [6] = S. pneumoniae 1016 (susceptible)
# [7] = H. influenzae 1218 (susceptible)
SMILES,"MIC S. pneumo. 1016 [1, 6]",MIC S. pneumo. 1095 ([2]; S. pneumoniae 1095 (ermB)),MIC S. pneumo. 1175 ([3]; S. pneumoniae 1175 (mefA)),MIC S. pyogenes 1079 ([4]; S. pyogenes 1079 (ermB)),"MIC H. influenzae 1218 [5, 7]",MIC S. pneumo. 1016 ([1]; Streptococcus pneumoniae 1016),MIC S. pneumo. 1095 ([2]; Streptococcus pneumoniae 1095),MIC S. pneumo. 1175 ([3]; Streptococcus pneumoniae 1175),MIC S. pyogenes 1079 ([4]; Streptococcus pyogenes 1079),MIC H. influenzae 1218 ([5]; Haemophilus influenzae 1218)
"CC[C@H]1OC(=O)[C@H](C)C(=O)[C@H](C)[C@@H](O[C@@H]2O[C@H](C)C[C@H](N(C)C)[C@H]2O)[C@](C)(OC)C[C@@H](C)C(=O)[C@H](C)[C@H]2N(C3CCN(Cc4cccc5[nH]cnc45)C3)C(=O)O[C@]12C.O=CO (stereo partly drawn) [Example 8.01, (1H-benzo[d]imidazo-4-yl)methyl]",<0.06 µg/mL,>64.00 µg/mL,0.25 µg/mL,>64.00 µg/mL,8 µg/mL,–,–,–,–,–
"CCC1OC(=O)C(C)C(=O)C(C)C(OC2OC(C)CC(N(C)C)C2O)C(C)(OC)CC(C)C(=O)C(C)C2N(C3CN(Cc4cccc5ncoc45)C3)C(=O)OC12C (stereo not drawn) [Example 1.13, (benzooxazol-7-yl)methyl]",–,–,–,–,–,<0.06 µg/mL,0.12 µg/mL,1 µg/mL,64 µg/mL,0.25 µg/mL
"CCC1OC(=O)C(C)C(=O)C(C)C(OC2OC(C)CC(N(C)C)C2O)C(C)(OC)CC(C)C(=O)C(C)C2N(C3CN(S(=O)(=O)c4cccnc4OC)C3)C(=O)OC12C (stereo not drawn) [Example 3.37, 2-methoxypyridine-3-sulfonyl]",–,–,–,–,–,<0.06 µg/mL,4 µg/mL,<0.06 µg/mL,16 µg/mL,0.5 µg/mL
"CCC1OC(=O)C(C)C(=O)C(C)C(OC2OC(C)CC(N(C)C)C2O)C(C)(OC)CC(C)C(=O)C(C)C2N(C3CN(Cc4c(Cl)cnc5ncccc45)C3)C(=O)OC12C (stereo not drawn) [Example 1.76, 3-descladinosyl-11,12-dideoxy-6-O-methyl-3-oxo-12,11-(oxycarbonyl-(1-(3-chloro-1,8-naphthyridine-4-methyl)-azetidin-3-yl)-imino)-erythromycin A]",–,–,–,–,–,<0.063 µg/mL,<0.063 µg/mL,<0.063 µg/mL,0.125 µg/mL,0.5 µg/mL
CCC1OC(=O)C(C)C(=O)C(C)C(OC2OC(C)CC(N(C)C)C2O)C(C)(OC)CC(C)C(=O)C(C)C2N(CC3CCCN3S(=O)(=O)c3cccc4cnccc34)C(=O)OC12C (stereo not drawn) [10.46],<0.06 µg/mL,<0.06 µg/mL,<0.06 µg/mL,64 µg/mL,1 µg/mL,–,–,–,–,–
CCC1OC(=O)C(C)C(=O)C(C)C(OC2OC(C)CC(N(C)C)C2O)C(C)(OC)CC(C)C(=O)C(C)C2N(C3CN(C(=O)Nc4ccc5ccccc5c4)C3)C(=O)OC12C (stereo not drawn) [Example 2.04],–,–,–,–,–,<0.06 µg/mL,8 µg/mL,<0.06 µg/mL,32 µg/mL,8 µg/mL
"CCC1OC(=O)C(C)C(=O)C(C)C(OC2OC(C)CC(N(C)C)C2O)C(C)(OC)CC(C)C(=O)C(C)C2N(C3CN(S(=O)(=O)c4cccnc4)C3)C(=O)OC12C (stereo not drawn) [Example 3.01, 3-descladinosyl-11,12-dideoxy-6-O-methyl-3-oxo-12,11-(oxycarbonyl-(1-(pyridine-3-sulfonyl)-azetidin-3-yl)-imino)-erythromycin A]",–,–,–,–,–,<0.06 µg/mL,<0.06 µg/mL,<0.06 µg/mL,4 µg/mL,0.25 µg/mL
CC[C@H]1OC(=O)[C@H](C)C(=O)[C@H](C)[C@@H](O[C@@H]2O[C@H](C)C[C@H](N(C)C)[C@H]2O)[C@](C)(OC)C[C@@H](C)C(=O)[C@H](C)[C@H]2N(C[C@H]3CCCN3C(=O)c3cccc4ncsc34)C(=O)O[C@]12C.O=CO [10.22],<0.06 µg/mL,0.12 µg/mL,2 µg/mL,64 µg/mL,2.5 µg/mL,–,–,–,–,–
"CCC1OC(=O)C(C)C(=O)C(C)C(OC2OC(C)CC(N(C)C)C2O)C(C)(OC)CC(C)C(=O)C(C)C2N(C3CN(S(=O)(=O)c4ccc(-c5ccon5)s4)C3)C(=O)OC12C (stereo not drawn) [Example 3.33, 3-descladinosyl-11,12-dideoxy-6-O-methyl-3-oxo-12,11-(1-(oxycarbonyl-(5-(isoxazol-3-yl)thiophene-2-sulfonyl)-azetidin-3-yl)-imino)-erythromycin A]",–,–,–,–,–,<0.06 µg/mL,<0.06 µg/mL,<0.06 µg/mL,8 µg/mL,0.5 µg/mL
CC[C@H]1OC(=O)[C@H](C)C(=O)[C@H](C)[C@@H](O[C@@H]2O[C@H](C)C[C@H](N(C)C)[C@H]2O)[C@](C)(OC)C[C@@H](C)C(=O)[C@H](C)[C@H]2N(CC3(O)CN(C(=O)c4ccc5nccnc5c4)C3)C(=O)O[C@]12C [7.18],<0.06 µg/mL,0.25 µg/mL,0.25 µg/mL,>64.00 µg/mL,2 µg/mL,–,–,–,–,–
"CC[C@H]1OC(=O)[C@H](C)[C@@H](OC(=O)N2CCCC2)[C@H](C)[C@@H](O[C@@H]2O[C@H](C)C[C@H](N(C)C)[C@H]2O)[C@](C)(OC)C[C@@H](C)C(=O)[C@H](C)[C@H]2N(CC3CN(Cc4nc5ccccc5[nH]4)C3)C(=O)O[C@]12C [Example 5.11, 2-R^2: (1H-benzo[d]imidazol-2-yl)methyl; R^#: pyrrolidin-1-yl]",–,–,–,–,–,<0.06 µg/mL,1 µg/mL,<0.06 µg/mL,32 µg/mL,1 µg/mL
CCC1OC(=O)C(C)C(=O)C(C)C(OC2OC(C)CC(N(C)C)C2O)C(C)(OC)CC(C)C(=O)C(C)C2N(CC3CN(Cc4ccc5ccccc5c4)C3)C(=O)OC12C (stereo not drawn) [4.29],–,–,–,–,–,<0.06 µg/mL,2 µg/mL,<0.06 µg/mL,16 µg/mL,0.12 µg/mL
"CCC1OC(=O)C(C)C(=O)C(C)C(OC2OC(C)CC(N(C)C)C2O)C(C)(OC)CC(C)C(=O)C(C)C2N(C3CN(S(=O)(=O)c4ccc(-n5cccn5)c(F)c4)C3)C(=O)OC12C (stereo not drawn) [Example 3.86, 3-descladinosyl-11,12-dideoxy-6-O-methyl-3-oxo-12,11-(oxycarbonyl-(1-(3-fluoro-4-(1H-pyrazol-1-yl)benzenesulfonyl)-azetidin-3-yl)-imino)-erythromycin A]",–,–,–,–,–,<0.06 µg/mL,<0.06 µg/mL,<0.06 µg/mL,1 µg/mL,1 µg/mL
CCC1OC(=O)C(C)C(=O)C(C)C(OC2OC(C)CC(N(C)C)C2O)C(C)(OC)CC(C)C(=O)C(C)C2N(CC3CCN(C(=O)c4cnc5ccccc5c4)C3)C(=O)OC12C (stereo not drawn) [13.10],<0.06 µg/mL,>64.00 µg/mL,0.25 µg/mL,>64.00 µg/mL,4 µg/mL,–,–,–,–,–
CCC1OC(=O)C(C)C(=O)C(C)C(OC2OC(C)CC(N(C)C)C2O)C(C)(OC)CC(C)C(=O)C(C)C2N(CC3CCN(Cc4ccno4)CC3)C(=O)OC12C (stereo not drawn) [15.09],<0.06 µg/mL,>64.00 µg/mL,0.5 µg/mL,>64.00 µg/mL,16 µg/mL,–,–,–,–,–
